ChEMBL document CHEMBL3120156, “Discovery and development of simeprevir (TMC435), a HCV NS3/4A protease inhibitor” (J Med Chem, 2014)

What was measured:
[1] = Intrinsic clearance in human liver microsomes; assay type: ADME; details: read-out: CLH
[2] = Volume of distribution at steady state in Sprague-Dawley rat at 2 mg/kg, iv administered as single dose with 20% Hydroxypropyl-beta-cyclodextrine; assay type: ADME, organism-based; set-up: dose 2 mg/kg, route intravenous; details: in vivo, read-out: Vdss
[3] = Inhibition of Hepatitis C virus genotype 1a full-length NS3/4A protease; set-up: species or system Hepatitis C virus subtype 1a
[4] = Apparent permeability of the compound from apical to basolateral side of human Caco2 cells; assay type: ADME, cell-based; details: Caco-2
[5] = system: Hepatitis C virus; assay: Antiviral activity against Hepatitis C virus genotype 1b infected in Huh7-clone ET Rep cells assessed as inhibition of HCV replication by luciferase assay; assay type: functional, organism-based, Hepacivirus hominis
[6] = system: Hepatitis C virus; assay: Antiviral activity against Hepatitis C virus genotype 1a; assay type: functional, organism-based, Hepacivirus hominis; details: subtype 1a
[7] = Inhibition of Hepatitis C virus genotype 1b NS3/4A protease; set-up: species or system Hepatitis C virus subtype 1b
[8] = Drug metabolism in human liver microsomes at 5 uM at 37 degC after 15 mins; assay type: ADME; details: read-out: Drug metabolism
[9] = system: Hepatitis C virus; assay: Antiviral activity against Hepatitis C virus genotype 1 infected in human patient assessed as log10 reduction of viral RNA level administered as oral dose measured after 2 days; assay type: functional, Hepacivirus hominis
[10] = Oral bioavailability in rat; assay type: ADME, organism-based; details: in vivo
[11] = Metabolic stability in rat bile assessed as unchanged drug level at 1 mg/kg, iv after 1 hr; assay type: ADME, organism-based; set-up: dose 1 mg/kg, route intravenous; details: read-out: Stability
[12] = Plasma clearance in rat; assay type: ADME, organism-based
[13] = AUC in Sprague-Dawley rat at 10 mg/kg, po administered with 50% PEG400 containing 2.5% of Vitamin E-TPGS; assay type: ADME, organism-based; set-up: dose 10 mg/kg, route oral; details: plasma
[14] = Ratio of drug level in liver to plasma in Sprague-Dawley rat at 10 mg/kg, po administered with 50% PEG400 containing 2.5% of Vitamin E-TPGS measured after 6 hrs; assay type: ADME, organism-based; set-up: dose 10 mg/kg, route oral; details: liver and plasma
[15] = Ratio of drug level in liver to plasma in Sprague-Dawley rat at 2 mg/kg, iv administered as single dose with 20% Hydroxypropyl-beta-cyclodextrine measured after 6 hrs; assay type: ADME, organism-based; set-up: dose 2 mg/kg, route intravenous; details: liver and plasma
[16] = Half life in Sprague-Dawley rat at 10 mg/kg, po administered with 50% PEG400 containing 2.5% of Vitamin E-TPGS; assay type: ADME, organism-based; set-up: dose 10 mg/kg, route oral; details: in vivo
[17] = Tmax in Sprague-Dawley rat at 10 mg/kg, po administered with 50% PEG400 containing 2.5% of Vitamin E-TPGS; assay type: ADME, organism-based; set-up: dose 10 mg/kg, route oral; details: in vivo
[18] = Cmax in Sprague-Dawley rat at 10 mg/kg, po administered with 50% PEG400 containing 2.5% of Vitamin E-TPGS; assay type: ADME, organism-based; set-up: dose 10 mg/kg, route oral; details: in vivo
[19] = Oral bioavailability in Sprague-Dawley rat at 10 mg/kg administered with 50% PEG400 containing 2.5% of Vitamin E-TPGS; assay type: ADME, organism-based; details: in vivo
[20] = Clearance in Sprague-Dawley rat at 2 mg/kg, iv administered as single dose with 20% Hydroxypropyl-beta-cyclodextrine; assay type: ADME, organism-based; set-up: dose 2 mg/kg, route intravenous; details: in vivo
[21] = system: Hepatitis C virus; assay: Antiviral activity against Hepatitis C virus infected in po dosed patient assessed as log10 reduction of HCV RNA level administered qd for 5 days; assay type: functional, Hepacivirus hominis
[22] = Cytotoxicity against staphylococcal enterotoxin B-stimulated human PBMC assessed as decrease in cell viability after 72 hrs by WST-1 assay; assay type: cell-based
[23] = system: PBMC; assay: Cytostatic activity against staphylococcal enterotoxin B-stimulated human PBMC assessed as decrease in cell proliferation after 7 hrs by [3H]thymidine incorporation assay; assay type: cell-based; details: read-out: CS50 (the source's name)
[24] = Protein binding in plasma (unknown origin); assay type: ADME, cell-free; details: read-out: PPB

| Molecule | Ki [3] | EC50 [5] | further results |
| --- | --- | --- | --- |
| COc1ccc2c(O[C@@H]3C[C@H]4C(=O)N[C@]5(C(=O)NS(=O)(=O)C6CC6)C[C@H]5/C=C\CCCCN(C)C(=O)N4C3)nc(-c3ccccc3)nc2c1C | 0.2 nM | 11 nM | microsomal CLint [1]: 17 µL/min/mg; Vd [2]: 1.1 L/kg; Papp A→B [4]: 26 ×10⁻⁶ cm/s |
| COc1ccc(-c2nc(O[C@@H]3C[C@H]4C(=O)N[C@]5(C(=O)NS(=O)(=O)C6CC6)C[C@H]5/C=C\CCCCN(C)C(=O)N4C3)c3ccc(OC)c(C)c3n2)cc1 | 0.6 nM | 3 nM | microsomal CLint [1]: 8 µL/min/mg; Papp A→B [4]: 33 ×10⁻⁶ cm/s |
| C=C[C@@H]1C[C@]1(NC(=O)[C@@H]1C[C@@H](Oc2cc(-c3ccccc3)nc3cc(OC)ccc23)C=C1C(=O)N[C@H](C(=O)N[C@H](C(=O)NC)C1CCCCC1)C(C)(C)C)C(=O)O | 1.3 nM |  |  |
| C=C[C@@H]1C[C@]1(NC(=O)[C@@H]1C[C@@H](Oc2cc(-c3ccccc3)nc3cc(OC)ccc23)C[C@H]1C(=O)N[C@H](C(=O)N[C@H](C(=O)NC)C1CCCCC1)C(C)(C)C)C(=O)O | 22 nM |  |  |
| CCc1cnc(-c2ccc(C)cc2NC(=O)O[C@@H]2C[C@H]3C(=O)N[C@]4(C(=O)NS(=O)(=O)C5CC5)C[C@H]4/C=C\CCCCN(C)C(=O)[C@@H]3C2)s1 | 0.2 nM | 3.2 nM | microsomal CLint [1]: < 6 µL/min/mg; Papp A→B [4]: 15 ×10⁻⁶ cm/s |
| CCOc1cc(O[C@@H]2C[C@H]3C(=O)N[C@]4(C(=O)NS(=O)(=O)C5CC5)C[C@H]4/C=C\CCCCN(C)C(=O)[C@@H]3C2)c2ccc(OC)c(C)c2n1 |  | 4.3 nM |  |
| COc1cc(O[C@@H]2C[C@H]3C(=O)N[C@]4(C(=O)NS(=O)(=O)C5CC5)C[C@H]4/C=C\CCCCN(C)C(=O)N3C2)nc(-c2ccccc2)n1 |  | 84 nM |  |
| COc1ccc2c(O[C@@H]3C[C@H]4C(=O)N[C@]5(C(=O)NS(=O)(=O)C6CC6)C[C@H]5/C=C\COCCN(C)C(=O)[C@@H]4C3)cc(-c3ccccc3)nc2c1 |  | 320 nM |  |
| COc1ccc2c(O[C@@H]3C[C@H]4C(=O)N[C@]5(C(=O)O)C[C@H]5/C=C/CCCCC[C@H](NC(=O)OC5CCCC5)C(=O)N4C3)cc(-c3csc(NC(C)C)n3)nc2c1 [listing 1 of 2 here] |  | 1.63 nM | EC50 [6]: 4 nM; Ki [7]: 0.66 nM; metabolised at 0.25 h, 5 µM [8]: 2.5% |
| COc1ccc2c(O[C@@H]3C[C@H]4C(=O)N[C@]5(C(=O)O)C[C@H]5/C=C/CCCCC[C@H](NC(=O)OC5CCCC5)C(=O)N4C3)cc(-c3csc(NC(C)C)n3)nc2c1 [listing 2 of 2 here] |  |  | FC [9]: 2 |
| COc1ccc2c(O[C@@H]3C[C@H]4C(=O)N[C@]5(C(=O)O)C[C@H]5/C=C\CCCN(C(=O)OC(C)(C)C)C(=O)[C@@H]4C3)cc(-c3ccccc3)nc2c1 | 130 nM | > 10 nM |  |
| COc1ccc2c(O[C@@H]3C[C@H]4C(=O)N[C@]5(C(=O)O)C[C@H]5/C=C\CCCCN(C(=O)OC(C)(C)C)C(=O)[C@@H]4C3)cc(-c3ccccc3)nc2c1 | 31 nM | > 10 nM |  |
| COc1ccc2c(O[C@@H]3C[C@H]4C(=O)N[C@]5(C(=O)O)C[C@H]5/C=C\CCCCCN(C(=O)OC(C)(C)C)C(=O)[C@@H]4C3)cc(-c3ccccc3)nc2c1 | 710 nM | > 10 nM |  |
| COc1ccc2c(O[C@@H]3C[C@H]4C(=O)N[C@]5(C(=O)O)C[C@H]5/C=C\CCCCN(N)C(=O)[C@@H]4C3)cc(-c3ccccc3)nc2c1 | 6 nM | 7.6 nM |  |
| COc1ccc2c(O[C@H]3C=C4C(=O)N(N)CCCC/C=C\[C@@H]5C[C@@]5(C(=O)O)NC(=O)C4C3)cc(-c3ccccc3)nc2c1 (stereo partly specified) | 15 nM | 5.4 nM |  |
| COc1ccc2c(O[C@H]3C[C@H]4C(=O)NCCCC/C=C\[C@@H]5C[C@@]5(C(=O)O)NC(=O)[C@@H]4C3)cc(-c3ccccc3)nc2c1 | 260 nM | > 10 nM |  |
| COc1ccc2c(O[C@@H]3C[C@H]4C(=O)N[C@]5(C(=O)O)C[C@H]5/C=C\CCCCN(C)C(=O)[C@@H]4C3)cc(-c3ccccc3)nc2c1 | 44 nM | 2.2 nM |  |
| COc1ccc2c(O[C@@H]3C[C@H]4C(=O)N[C@]5(C(=O)NS(=O)(=O)C6CC6)C[C@H]5/C=C\CCCCN(NC(=O)OC(C)(C)C)C(=O)[C@@H]4C3)cc(-c3ccccc3)nc2c1 | 0.07 nM | 0.53 nM |  |
| COc1ccc2c(O[C@@H]3C[C@H]4C(=O)N[C@]5(C(=O)NS(=O)(=O)C6CC6)C[C@H]5/C=C\CCCCN(N)C(=O)[C@@H]4C3)cc(-c3ccccc3)nc2c1 | 0.19 nM | 0.033 nM |  |
| COc1ccc2c(O[C@H]3C[C@H]4C(=O)NCCCC/C=C\[C@@H]5C[C@@]5(C(=O)NS(=O)(=O)C5CC5)NC(=O)[C@@H]4C3)cc(-c3ccccc3)nc2c1 | 2.2 nM | 4.4 nM |  |
| COc1ccc2c(O[C@@H]3C[C@H]4C(=O)N[C@]5(C(=O)NS(=O)(=O)C6CC6)C[C@H]5/C=C\CCCCN(C)C(=O)[C@@H]4C3)cc(-c3ccccc3)nc2c1 |  |  | bioavailability [10]: 2.5%; remaining at 1 h [11]: 95%; clearance [12]: 46.5 mL/min/kg |
| COc1ccc2c(O[C@@H]3C[C@H]4C(=O)N[C@]5(C(=O)NS(=O)(=O)C6(C)CC6)C[C@H]5/C=C\CCCCCNC(=O)N4C3)cc(-c3nc(C(C)C)cs3)nc2c1 |  |  | AUC [13]: 6 µM·h; Kp at 6 h [14]: 100; Kp at 6 h [15]: 550; Vd [2]: 1 L/kg; half-life [16]: 3 h; Tmax [17]: 0.75 h; metabolised at 0.25 h, 5 µM [8]: 89% |
| COc1ccc2c(O[C@@H]3C[C@H]4C(=O)N[C@]5(C(=O)NS(=O)(=O)C6(C)CC6)C[C@H]5/C=C\CCCCCC(=O)N4C3)cc(-c3nc(C(C)C)cs3)nc2c1C | 0.2 nM | 3.8 nM | Cmax [18]: 930 nM; bioavailability [19]: 31%; clearance [20]: 15.7 mL/min/kg; Vd [2]: 0.56 L/kg; half-life [16]: 2.7 h; Papp A→B [4]: 11.1 ×10⁻⁶ cm/s; Tmax [17]: 0.75 h |
| COc1ccc2c(O[C@@H]3C[C@H]4C(=O)N[C@]5(C(=O)NS(=O)(=O)C6CC6)C[C@H]5/C=C\CCCCN(C)C(=O)[C@@H]4C3)cc(-c3nc(C(C)C)cs3)nc2c1C [SIMEPREVIR] | 0.36 nM | 7.8 nM | Ki [7]: 1.4 nM; FC [21]: 3.9; CC50 at 72 h [22]: ≥ 10000 nM; GI50 [23]: ≥ 10000 nM; EC90 [5]: 19 nM; fraction unbound [24]: < 0.01 |
| H-DDIVPC-OH | 71000 nM |  |  |
